From US11987588B2, “Modulators of the beta-3 adrenergic receptor useful for the treatment or prevention of heart failure and disorders related thereto” (Arena Pharmaceuticals, Inc., priority 2017, dated 2024)

target: Beta-3 Adrenergic Receptor (Homo sapiens (Human), UniProt P13945); assay: Homogeneous Time-Resolved Fluorescence (HTRF) cAMP antagonist assay, IC50 determination; format: cell-based; settings: CHO-K1 cells stably expressing recombinant receptor, isoproterenol at EC90
Procedure, shortened: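 CHO-K1 cells stably expressing the recombinant receptor were preincubated with compound (10-point, 5-fold dilutions; top final typically 10 or 100 μM) in PBS with 1 mM IBMX, then stimulated with isoproterenol at its EC90 for 1 h at room temperature. cAMP was read by HTRF against an on-plate standard curve.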

Chain of Beta-3 Adrenergic Receptor (P13945 whole entry, species assumed): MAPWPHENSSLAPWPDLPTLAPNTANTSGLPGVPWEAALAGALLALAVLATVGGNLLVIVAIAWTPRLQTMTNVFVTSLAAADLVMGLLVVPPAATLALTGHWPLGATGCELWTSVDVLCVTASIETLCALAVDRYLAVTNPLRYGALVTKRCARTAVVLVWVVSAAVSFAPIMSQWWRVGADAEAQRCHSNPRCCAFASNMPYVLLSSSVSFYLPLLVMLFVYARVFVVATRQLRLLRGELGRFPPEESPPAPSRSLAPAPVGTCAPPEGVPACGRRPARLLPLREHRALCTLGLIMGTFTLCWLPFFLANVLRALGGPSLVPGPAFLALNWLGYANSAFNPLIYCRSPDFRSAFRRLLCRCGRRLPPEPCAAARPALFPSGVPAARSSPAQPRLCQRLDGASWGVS

Going from `CNS(=O)(=O)c1cccc(OC[C@@H](O)CN[C@@H]2COC3(CCN(S(=O)(=O)c4cccc(-c5ccc(CNCC(C)C)cc5)c4)CC3)C2)c1` [Compound 360, 3-((S)-2-hydroxy-3-((S)-8-(4′-((isobutylamino)methyl)biphenyl-3-ylsulfonyl)-1-oxa-8-azaspiro[4.5]decan-3-ylamino)propoxy)-N-methylbenzenesulfonamide] to `CNS(=O)(=O)c1cccc(OC[C@@H](O)CN[C@H]2COC3(CCN(S(=O)(=O)c4cccc(-c5ccc(CNCC(C)C)cc5)c4)CC3)C2)c1` [Compound 363, 3-((S)-2-hydroxy-3-((R)-8-(4′-((isobutylamino)methyl)biphenyl-3-ylsulfonyl)-1-oxa-8-azaspiro[4.5]decan-3-ylamino)propoxy)-N-methylbenzenesulfonamide], the IC50 rises from 0.0205 µM to 0.123 µM (6-fold).

Going from `CNS(=O)(=O)c1cccc(OC[C@@H](O)CN[C@@H]2COC3(CCN(S(=O)(=O)c4cccc(-c5ccc(CNCCC(C)C)cc5)c4)CC3)C2)c1` [Compound 361, 3-((S)-2-hydroxy-3-((S)-8-(4′-((isopentylamino)methyl)biphenyl-3-ylsulfonyl)-1-oxa-8-azaspiro[4.5]decan-3-ylamino)propoxy)-N-methylbenzenesulfonamide] to `CNS(=O)(=O)c1cccc(OC[C@@H](O)CN[C@H]2COC3(CCN(S(=O)(=O)c4cccc(-c5ccc(CNCCC(C)C)cc5)c4)CC3)C2)c1` [Compound 364, 3-((S)-2-hydroxy-3-((R)-8-(4′-((isopentylamino)methyl)biphenyl-3-ylsulfonyl)-1-oxa-8-azaspiro[4.5]decan-3-ylamino)propoxy)-N-methylbenzenesulfonamide], the IC50 rises from 0.0221 µM to 0.144 µM (6.5-fold).

`CNS(=O)(=O)c1cccc(OC[C@@H](O)CN[C@H]2COC3(CCN(S(=O)(=O)c4cccc(-c5ccc(CNC(C)C)cc5)c4)CC3)C2)c1` [Compound 362, 3-((S)-2-hydroxy-3-((R)-8-(4′-((isopropylamino)methyl)biphenyl-3-ylsulfonyl)-1-oxa-8-azaspiro[4.5]decan-3-ylamino)propoxy)-N-methylbenzenesulfonamide] and `CNS(=O)(=O)c1cccc(OC[C@@H](O)CNC2COC3(CCN(S(=O)(=O)c4cccc(-c5ccc(C(=N)N)cc5)c4)CC3)C2)c1` (stereo partly drawn) [Compound 383, 3′-(3-((S)-2-hydroxy-3-(3-(N-methylsulfamoyl)phenoxy)propylamino)-1-oxa-8-azaspiro[4.5]decan-8-ylsulfonyl)biphenyl-4-carboximidamide] are within 1.5-fold of each other in IC50: 0.0275 µM for the first, 0.0218 µM for the second.

`CNS(=O)(=O)c1cccc(OC[C@@H](O)CNC2COC3(CCN(S(=O)(=O)c4cc(-c5ccc(CN)cc5)ccc4C)CC3)C2)c1` (stereo partly drawn) [Compound 365, 3-((2S)-3-(8-(4′-(aminomethyl)-4-methylbiphenyl-3-ylsulfonyl)-1-oxa-8-azaspiro[4.5]decan-3-ylamino)-2-hydroxypropoxy)-N-methylbenzenesulfonamide] and `CNS(=O)(=O)c1cccc(OC[C@@H](O)CNC2COC3(CCN(S(=O)(=O)c4cc(-c5ccc(CN)cc5)ccc4Cl)CC3)C2)c1` (stereo partly drawn) [Compound 377, 3-((2S)-3-(8-(4′-(aminomethyl)-4-chlorobiphenyl-3-ylsulfonyl)-1-oxa-8-azaspiro[4.5]decan-3-ylamino)-2-hydroxypropoxy)-N-methylbenzenesulfonamide] are within 1.5-fold of each other in IC50: 0.0207 µM for the first, 0.0189 µM for the second.

Going from `CNS(=O)(=O)c1cccc(OC[C@@H](O)CNC2COC3(CCN(S(=O)(=O)c4ccc(OC)c(-c5ccc(CN)cc5)c4)CC3)C2)c1` (stereo partly drawn) [Compound 366, 3-((2S)-3-(8-(4′-(aminomethyl)-6-methoxybiphenyl-3-ylsulfonyl)-1-oxa-8-azaspiro[4.5]decan-3-ylamino)-2-hydroxypropoxy)-N-methylbenzenesulfonamide] to `CNS(=O)(=O)c1cccc(OC[C@@H](O)CNC2COC3(CCN(S(=O)(=O)c4ccc(C)c(-c5ccc(CN)cc5)c4)CC3)C2)c1` (stereo partly drawn) [Compound 376, 3-((2S)-3-(8-(4′-(aminomethyl)-6-methylbiphenyl-3-ylsulfonyl)-1-oxa-8-azaspiro[4.5]decan-3-ylamino)-2-hydroxypropoxy)-N-methylbenzenesulfonamide], the IC50 rises from 0.0275 µM to 0.499 µM (18-fold).

`CNS(=O)(=O)c1cccc(OC[C@@H](O)CNC2COC3(CCN(S(=O)(=O)c4cc(-c5ccc(CN)cc5)cc(C(F)(F)F)c4)CC3)C2)c1` (stereo partly drawn) [Compound 367, 3-((2S)-3-(8-(4′-(aminomethyl)-5-(trifluoromethyl)biphenyl-3-ylsulfonyl)-1-oxa-8-azaspiro[4.5]decan-3-ylamino)-2-hydroxypropoxy)-N-methylbenzenesulfonamide] and `CNS(=O)(=O)c1cccc(OC[C@@H](O)CNC2COC3(CCN(S(=O)(=O)c4cc(C)cc(-c5ccc(CN)cc5)c4)CC3)C2)c1` (stereo partly drawn) [Compound 373, 3-((2S)-3-(8-(4′-(aminomethyl)-5-methylbiphenyl-3-ylsulfonyl)-1-oxa-8-azaspiro[4.5]decan-3-ylamino)-2-hydroxypropoxy)-N-methylbenzenesulfonamide] are within 1.5-fold of each other in IC50: 0.0312 µM for the first, 0.0244 µM for the second.

Compared with `CNS(=O)(=O)c1cccc(OC[C@@H](O)CNC2COC3(CCN(S(=O)(=O)c4cccc(-c5ccc(C(N)=O)cc5)c4)CC3)C2)c1` (stereo partly drawn) [Compound 368, 3′-(3-((S)-2-hydroxy-3-(3-(N-methylsulfamoyl)phenoxy)propylamino)-1-oxa-8-azaspiro[4.5]decan-8-ylsulfonyl)biphenyl-4-carboxamide], `CNS(=O)(=O)c1cccc(OC[C@@H](O)CNC2COC3(CCN(S(=O)(=O)c4cccc(-c5ccc(/C(N)=N/O)cc5)c4)CC3)C2)c1` (stereo partly drawn) [Compound 379, (Z)-N′-hydroxy-3′-(3-((S)-2-hydroxy-3-(3-(N-methylsulfamoyl)phenoxy)propylamino)-1-oxa-8-azaspiro[4.5]decan-8-ylsulfonyl)biphenyl-4-carboximidamide] is 3.2-fold lower in IC50: 0.0352 µM for the first, 0.0111 µM for the second. The second is the more potent here.

`CNS(=O)(=O)c1cccc(OC[C@@H](O)CNC2COC3(CCN(S(=O)(=O)c4cccc(-c5ccc(CN)s5)c4)CC3)C2)c1` (stereo partly drawn) [Compound 369, 3-((2S)-3-(8-(3-(5-(aminomethyl)thiophen-2-yl)phenylsulfonyl)-1-oxa-8-azaspiro[4.5]decan-3-ylamino)-2-hydroxypropoxy)-N-methylbenzenesulfonamide] and `CNS(=O)(=O)c1cccc(OC[C@@H](O)CN[C@@H]2COC3(CCN(S(=O)(=O)c4cncc(-c5ccc(CN)cc5)c4)CC3)C2)c1` [Compound 374, 3-((S)-3-((S)-8-(5-(4-(aminomethyl)phenyl)pyridin-3-ylsulfonyl)-1-oxa-8-azaspiro[4.5]decan-3-ylamino)-2-hydroxypropoxy)-N-methylbenzenesulfonamide] are within 1.5-fold of each other in IC50: 0.0146 µM for the first, 0.0157 µM for the second.

Compared with `CNS(=O)(=O)c1cccc(OC[C@@H](O)CNC2COC3(CCN(S(=O)(=O)c4cccc(-c5cncc(C#N)c5)c4)CC3)C2)c1` (stereo partly drawn) [Compound 370, 3-((2S)-3-(8-(3-(5-cyanopyridin-3-yl)phenylsulfonyl)-1-oxa-8-azaspiro[4.5]decan-3-ylamino)-2-hydroxypropoxy)-N-methylbenzenesulfonamide], `CNS(=O)(=O)c1cccc(OC[C@@H](O)CN[C@H]2COC3(CCN(S(=O)(=O)c4cncc(-c5ccc(CN)cc5)c4)CC3)C2)c1` [Compound 375] is 1.9-fold lower in IC50: 0.0478 µM for the first, 0.0254 µM for the second.

`CNS(=O)(=O)c1cccc(OC[C@@H](O)CNC2COC3(CCN(S(=O)(=O)c4cccc(-c5ccc(NCCN6CCOCC6)nc5)c4)CC3)C2)c1` (stereo partly drawn) [Compound 371, 3-((2S)-2-hydroxy-3-(8-(3-(6-(2-morpholinoethylamino)pyridin-3-yl)phenylsulfonyl)-1-oxa-8-azaspiro[4.5]decan-3-ylamino)propoxy)-N-methylbenzenesulfonamide] and `CNS(=O)(=O)c1cccc(OC[C@@H](O)CNC2COC3(CCN(S(=O)(=O)c4cccc(-c5ccc(OCCCN(C)C)nc5)c4)CC3)C2)c1` (stereo partly drawn) [Compound 372, 3-((2S)-3-(8-(3-(6-(3-(dimethylamino)propoxy)pyridin-3-yl)phenylsulfonyl)-1-oxa-8-azaspiro[4.5]decan-3-ylamino)-2-hydroxypropoxy)-N-methylbenzenesulfonamide] are within 1.5-fold of each other in IC50: 0.042 µM for the first, 0.0418 µM for the second.

Compared with `CNS(=O)(=O)c1cccc(OC[C@@H](O)CNC2COC3(CCN(S(=O)(=O)CCc4ccncc4)CC3)C2)c1` (stereo partly drawn) [Compound 378, 3-((2S)-2-hydroxy-3-(8-(2-(pyridin-4-yl)ethylsulfonyl)-1-oxa-8-azaspiro[4.5]decan-3-ylamino)propoxy)-N-methylbenzenesulfonamide], `CNS(=O)(=O)c1cccc(OC[C@@H](O)CNC2COC3(CCN(S(=O)(=O)c4ccccc4-c4ccc(CN)cc4)CC3)C2)c1` (stereo partly drawn) [Compound 381, 3-((2S)-3-(8-(4′-(aminomethyl)biphenyl-2-ylsulfonyl)-1-oxa-8-azaspiro[4.5]decan-3-ylamino)-2-hydroxypropoxy)-N-methylbenzenesulfonamide] is 2.7-fold higher in IC50: 0.131 µM for the first, 0.357 µM for the second. The first is the more potent here.

Going from `CNS(=O)(=O)c1cccc(OC[C@@H](O)CNC2COC3(CCN(S(=O)(=O)c4cccc(-c5ccc(-c6noc(C)n6)cc5)c4)CC3)C2)c1` (stereo partly drawn) [Compound 380, 3-((2S)-2-hydroxy-3-(8-(4′-(5-methyl-1,2,4-oxadiazol-3-yl)biphenyl-3-ylsulfonyl)-1-oxa-8-azaspiro[4.5]decan-3-ylamino)propoxy)-N-methylbenzenesulfonamide] to `CNS(=O)(=O)c1cccc(OC[C@@H](O)CNC2COC3(CCN(S(=O)(=O)c4ccc(-c5ccc(CN)cc5)cc4)CC3)C2)c1` (stereo partly drawn) [Compound 382, 3-((2S)-3-(8-(4′-(aminomethyl)biphenyl-4-ylsulfonyl)-1-oxa-8-azaspiro[4.5]decan-3-ylamino)-2-hydroxypropoxy)-N-methylbenzenesulfonamide], the IC50 falls from 0.102 µM to 0.021 µM (4.9-fold).

Compound `CNS(=O)(=O)c1cccc(OC[C@@H](O)CN[C@@H]2COC3(CCN(S(=O)(=O)c4cc(-c5ccc(CN)cc5)ccc4OC)CC3)C2)c1` [Compound 384, 3-((S)-3-((S)-8-(4′-(aminomethyl)-4-methoxybiphenyl-3-ylsulfonyl)-1-oxa-8-azaspiro[4.5]decan-3-ylamino)-2-hydroxypropoxy)-N-methylbenzenesulfonamide] has an IC50 of 0.011 µM.
